This is an account of results in ChEMBL document CHEMBL2412968, “Tetrazole-based deoxyamodiaquines: synthesis, ADME/PK profiling and pharmacological evaluation as potential antimalarial agents” (Bioorg Med Chem, 2013).

One data set deals with T1, Cytochrome P450 2C8 (Homo sapiens, UniProt P10632).
T1 sequence (P10632 whole entry): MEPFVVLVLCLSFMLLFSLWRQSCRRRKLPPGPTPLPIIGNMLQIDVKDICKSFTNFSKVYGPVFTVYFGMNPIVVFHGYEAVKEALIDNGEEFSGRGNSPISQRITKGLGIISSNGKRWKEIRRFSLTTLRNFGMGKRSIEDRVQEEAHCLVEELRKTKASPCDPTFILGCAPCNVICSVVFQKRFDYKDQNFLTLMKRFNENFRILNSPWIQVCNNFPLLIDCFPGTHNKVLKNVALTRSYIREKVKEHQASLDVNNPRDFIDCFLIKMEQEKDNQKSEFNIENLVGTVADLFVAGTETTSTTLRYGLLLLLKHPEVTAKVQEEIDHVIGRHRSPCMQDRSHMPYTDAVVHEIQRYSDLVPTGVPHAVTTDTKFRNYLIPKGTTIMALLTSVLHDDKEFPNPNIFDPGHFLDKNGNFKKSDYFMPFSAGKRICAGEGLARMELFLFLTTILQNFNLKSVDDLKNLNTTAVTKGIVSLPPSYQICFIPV
As to the kind of experiment: Inhibition of CYP2C8 in human liver microsomes assessed as paclitaxel 6alpha-hydroxylation after 20 mins by LC-MS analysis. The data set is classed as ADME, Microsome. For orientation: Microsomes from liver hold many membrane-bound enzymes, among them those of drug oxidation.

The target of the next data set is Cytochrome P450 2E1 (Homo sapiens, UniProt P05181). Kind of data set: Inhibition of CYP2E1 in human liver microsomes assessed as chlorzoxazone 6-hydroxylation after 20 mins by LC-MS analysis. The data set is classed as ADME, Microsome.
Cytochrome P450 2E1, sequence (P05181 whole entry): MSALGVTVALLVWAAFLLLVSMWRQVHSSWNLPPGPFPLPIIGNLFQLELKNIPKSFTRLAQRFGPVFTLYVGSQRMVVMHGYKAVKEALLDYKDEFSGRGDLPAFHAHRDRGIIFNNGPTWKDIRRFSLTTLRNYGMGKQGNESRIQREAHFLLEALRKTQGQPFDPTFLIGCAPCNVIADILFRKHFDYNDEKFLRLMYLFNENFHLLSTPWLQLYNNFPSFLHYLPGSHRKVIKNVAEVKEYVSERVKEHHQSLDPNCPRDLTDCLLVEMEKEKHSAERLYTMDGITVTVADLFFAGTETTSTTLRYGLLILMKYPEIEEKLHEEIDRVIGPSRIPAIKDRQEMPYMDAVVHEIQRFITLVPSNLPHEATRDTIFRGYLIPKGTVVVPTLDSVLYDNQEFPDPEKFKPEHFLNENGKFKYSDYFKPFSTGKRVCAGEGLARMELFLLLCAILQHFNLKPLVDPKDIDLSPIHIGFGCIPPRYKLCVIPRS
The test system of data set [1] is Liver microsomes. Kind of data set: Metabolic stability of the compound in rat liver microsomes at 1 uM after 40 mins. The class given is ADME, Microsome.
The subject of the next data set is CHO. Kind of data set: Cytotoxicity against CHO cells by MTT assay. The class given is cell-based. The note with it: Cricetulus griseus. (Tetrazolium dyes change colour on reduction, which living cells bring about.)
Another data set concerns the target Cytochrome P450 2C9 (Homo sapiens, UniProt P11712). Kind of data set: Inhibition of CYP2C9 in human liver microsomes assessed as diclofenac 4'-hydroxylation after 20 mins by LCMS analysis. The class given is ADME, Microsome.
In data set [2] the test system is Plasmodium falciparum. As to the kind of experiment: Antiplasmodial activity chloroquine-sensitive Plasmodium falciparum 3D7 infected in human A+ erythrocytes assessed as reduction of [3H]hypoxanthine incorporation after 24 hrs by scintillation counting. The class given is functional, organism-based.
A further data set has as its target T2, Cytochrome P450 1A2 (Homo sapiens, UniProt P05177).
T2 sequence (P05177 whole entry): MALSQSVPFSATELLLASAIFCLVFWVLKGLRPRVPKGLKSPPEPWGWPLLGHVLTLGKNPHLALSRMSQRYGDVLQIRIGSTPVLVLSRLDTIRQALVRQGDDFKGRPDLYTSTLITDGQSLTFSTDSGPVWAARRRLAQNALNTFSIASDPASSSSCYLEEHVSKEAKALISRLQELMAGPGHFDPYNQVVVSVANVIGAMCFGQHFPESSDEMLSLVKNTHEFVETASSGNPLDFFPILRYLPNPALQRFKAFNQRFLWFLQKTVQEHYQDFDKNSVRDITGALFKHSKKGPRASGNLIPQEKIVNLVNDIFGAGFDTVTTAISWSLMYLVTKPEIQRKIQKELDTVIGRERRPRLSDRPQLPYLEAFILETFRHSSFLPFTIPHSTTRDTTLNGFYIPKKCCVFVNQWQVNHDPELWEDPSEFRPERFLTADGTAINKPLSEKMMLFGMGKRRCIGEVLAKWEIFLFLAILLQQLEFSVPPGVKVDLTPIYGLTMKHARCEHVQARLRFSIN
Kind of data set: Inhibition of CYP1A2 in human liver microsomes assessed as phenacetin O-deethylation after 20 mins by LC-MS analysis. The data set is classed as ADME, Microsome.

For a further data set, the target named is T3, Cytochrome P450 2B6 (Homo sapiens, UniProt P20813).
T3 sequence (P20813 whole entry): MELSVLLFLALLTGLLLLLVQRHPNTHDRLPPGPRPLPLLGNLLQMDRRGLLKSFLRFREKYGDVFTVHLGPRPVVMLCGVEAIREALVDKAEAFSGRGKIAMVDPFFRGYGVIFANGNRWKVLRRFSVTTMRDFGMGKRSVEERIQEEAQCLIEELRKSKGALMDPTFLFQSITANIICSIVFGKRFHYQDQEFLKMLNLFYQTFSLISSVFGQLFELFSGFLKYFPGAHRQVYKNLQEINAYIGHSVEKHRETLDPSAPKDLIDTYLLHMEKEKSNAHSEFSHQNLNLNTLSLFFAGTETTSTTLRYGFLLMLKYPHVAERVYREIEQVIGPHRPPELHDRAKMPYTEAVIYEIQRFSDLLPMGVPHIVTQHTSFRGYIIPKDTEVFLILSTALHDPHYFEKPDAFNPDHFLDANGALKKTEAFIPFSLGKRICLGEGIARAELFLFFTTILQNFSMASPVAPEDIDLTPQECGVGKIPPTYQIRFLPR
As to the kind of experiment: Inhibition of CYP2B6 in human liver microsomes assessed as bupropion hydroxylation after 20 mins by LC-MS analysis. The data set is classed as ADME, Microsome.

In the next data set the target is T4, Cytochrome P450 2A6 (Homo sapiens, UniProt P11509).
T4 sequence (P11509 whole entry): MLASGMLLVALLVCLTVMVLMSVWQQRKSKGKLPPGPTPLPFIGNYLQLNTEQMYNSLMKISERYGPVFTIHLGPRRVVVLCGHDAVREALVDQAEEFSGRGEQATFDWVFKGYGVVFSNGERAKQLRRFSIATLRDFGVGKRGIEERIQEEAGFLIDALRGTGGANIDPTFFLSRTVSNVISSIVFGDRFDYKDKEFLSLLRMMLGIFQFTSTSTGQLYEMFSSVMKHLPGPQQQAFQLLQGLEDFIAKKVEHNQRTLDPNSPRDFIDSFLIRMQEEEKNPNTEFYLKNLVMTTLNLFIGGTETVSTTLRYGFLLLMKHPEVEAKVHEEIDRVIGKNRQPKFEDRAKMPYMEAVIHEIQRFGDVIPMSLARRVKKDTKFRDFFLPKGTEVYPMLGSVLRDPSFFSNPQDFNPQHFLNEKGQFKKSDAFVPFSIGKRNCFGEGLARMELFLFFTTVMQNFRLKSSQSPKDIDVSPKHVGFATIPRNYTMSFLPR
Kind of data set: Inhibition of CYP2A6 in human liver microsomes assessed as coumarin 7-hydroxylation after 20 mins by LC-MS analysis. The class given is ADME, Microsome.

Data set [3] concerns Liver microsomes. As to the kind of experiment: Metabolic stability of the compound in human liver microsomes at 1 uM after 40 mins. The class given is ADME, Microsome.
A further data set deals with Cytochrome P450 2D6 (Homo sapiens, UniProt P10635). Kind of data set: Inhibition of CYP2D6 in human liver microsomes assessed as bufuralol 1'-hydroxylation after 20 mins by LCMS analysis. The data set is classed as ADME, Microsome.
Cytochrome P450 2D6, sequence (P10635 whole entry): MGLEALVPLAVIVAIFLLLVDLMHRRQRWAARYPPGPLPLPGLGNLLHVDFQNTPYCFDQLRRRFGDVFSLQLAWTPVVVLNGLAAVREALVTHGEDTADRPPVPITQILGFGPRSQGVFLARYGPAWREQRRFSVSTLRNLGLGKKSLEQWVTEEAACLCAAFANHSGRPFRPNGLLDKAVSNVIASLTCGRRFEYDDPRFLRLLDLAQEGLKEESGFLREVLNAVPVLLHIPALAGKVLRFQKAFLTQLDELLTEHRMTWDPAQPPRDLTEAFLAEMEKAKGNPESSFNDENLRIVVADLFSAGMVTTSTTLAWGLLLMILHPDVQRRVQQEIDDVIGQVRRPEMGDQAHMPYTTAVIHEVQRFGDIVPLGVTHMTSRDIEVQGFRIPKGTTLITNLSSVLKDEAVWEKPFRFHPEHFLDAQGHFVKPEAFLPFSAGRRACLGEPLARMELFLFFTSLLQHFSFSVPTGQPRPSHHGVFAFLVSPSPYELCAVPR
Data set [4] deals with Plasmodium falciparum. As to the kind of experiment: Antiplasmodial activity chloroquine-resistant Plasmodium falciparum K1 infected in human A+ erythrocytes assessed as reduction of [3H]hypoxanthine incorporation after 24 hrs by scintillation counting. The data set is classed as functional, organism-based.
Data set [5] in a line: physchem. The note with it: phosphate buffered saline, pH 7.4.
For the next data set, the system named is Hepatocyte. As to the kind of experiment: Drug metabolism in human hepatocytes assessed as formation of N-dealkylation product at 5 uM after 1 hr. The data set is classed as ADME, cell-based.
Data set [6] deals with Plasmodium falciparum. As to the kind of experiment: Antiplasmodial activity chloroquine-resistant Plasmodium falciparum W2 using YOYO-1 staining after 48 hrs by FACS analysis. The note with it: W2, 48 h. The class given is functional, organism-based. On the technique in general: In flow cytometry, cells or beads pass a laser one at a time.
A short description of data set [7]: physchem. The note with it: 0.01 M HCl, pH 2.
Data set [8] has as its system Liver microsomes. Kind of data set: Drug metabolism in human liver microsomes assessed as formation of N-dealkylation product at 5 uM after 1 hr. The data set is classed as ADME, Microsome.

pIC50: −log10 of the molar value. Bounds are passed on as bounds.

Cytochrome P450 2C9, sequence (P11712 whole entry): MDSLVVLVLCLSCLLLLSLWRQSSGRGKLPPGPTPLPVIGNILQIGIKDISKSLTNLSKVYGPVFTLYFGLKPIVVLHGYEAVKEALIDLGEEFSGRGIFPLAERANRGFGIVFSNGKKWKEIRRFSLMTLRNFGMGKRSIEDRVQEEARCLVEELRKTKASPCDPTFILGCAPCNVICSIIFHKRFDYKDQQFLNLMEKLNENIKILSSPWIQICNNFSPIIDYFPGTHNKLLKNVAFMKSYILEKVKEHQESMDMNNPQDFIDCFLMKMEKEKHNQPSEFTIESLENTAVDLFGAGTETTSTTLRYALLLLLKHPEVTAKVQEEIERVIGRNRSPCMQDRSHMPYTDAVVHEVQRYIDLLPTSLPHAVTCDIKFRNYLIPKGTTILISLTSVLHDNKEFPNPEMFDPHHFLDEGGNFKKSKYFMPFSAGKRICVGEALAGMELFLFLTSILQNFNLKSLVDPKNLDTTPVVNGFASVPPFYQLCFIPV

Broadly, the pIC50 is the IC50 on a negative log10 scale, so that one unit is a factor of ten. As a reminder, the kinetic solubility is the concentration staying in solution when a stock, usually in DMSO, is diluted into the medium. For the molecule `CCN(CC)C(c1cccc(Nc2ccnc3cc(Cl)ccc23)c1)c1nnnn1C(C)(C)C` (configuration not stated), the pIC50 at Cytochrome P450 2C8 was 6.66; on Cytochrome P450 2E1, less than 4.70; in the data set with CHO, 3.96; at Cytochrome P450 2C9, 5.61; in the data set with Plasmodium falciparum [2], 7.00; on Cytochrome P450 1A2, 5.36. Also, the negative logarithm of the IC50 (pIC50) was less than 4.70 at Cytochrome P450 2B6; less than 4.70 on Cytochrome P450 2A6; 5.64 on Cytochrome P450 2D6; 8.22 in the data set with Plasmodium falciparum [4]; 7.18 in the data set with Plasmodium falciparum [6]. Also, the Stability result in the data set with Liver microsomes [1] and with Liver microsomes [3] was “Unstable” throughout. The kinetic solubility at 2 h in the data set “physchem [5]” was less than 5 µM; in the data set “physchem [7]”, greater than 200 µM. The Drug metabolism entry with Hepatocyte and in the data set on Liver microsomes [8] was “Active” each time.
